According to patent publication US6462038B1, “Androgen receptor modulator compounds and methods” (Ligand Pharmaceuticals, Inc., priority 1999, dated 2002):
Where two headings read alike, the source gives them in different places.

What was measured:
[1] = target: T1, hAR (Homo sapiens, UniProt P10275); assay: co-transfection assay, AR agonist, CV-1 cells; type: cell-based; details: for AR Agonist CV-1 Cells Efficacy (%): relative to maximum LUC production by reference agonist
T1 construct: expressed in transfected cells; host or cells: CV-1 cells (African green monkey kidney fibroblasts)
T1 sequence (P10275 1-920): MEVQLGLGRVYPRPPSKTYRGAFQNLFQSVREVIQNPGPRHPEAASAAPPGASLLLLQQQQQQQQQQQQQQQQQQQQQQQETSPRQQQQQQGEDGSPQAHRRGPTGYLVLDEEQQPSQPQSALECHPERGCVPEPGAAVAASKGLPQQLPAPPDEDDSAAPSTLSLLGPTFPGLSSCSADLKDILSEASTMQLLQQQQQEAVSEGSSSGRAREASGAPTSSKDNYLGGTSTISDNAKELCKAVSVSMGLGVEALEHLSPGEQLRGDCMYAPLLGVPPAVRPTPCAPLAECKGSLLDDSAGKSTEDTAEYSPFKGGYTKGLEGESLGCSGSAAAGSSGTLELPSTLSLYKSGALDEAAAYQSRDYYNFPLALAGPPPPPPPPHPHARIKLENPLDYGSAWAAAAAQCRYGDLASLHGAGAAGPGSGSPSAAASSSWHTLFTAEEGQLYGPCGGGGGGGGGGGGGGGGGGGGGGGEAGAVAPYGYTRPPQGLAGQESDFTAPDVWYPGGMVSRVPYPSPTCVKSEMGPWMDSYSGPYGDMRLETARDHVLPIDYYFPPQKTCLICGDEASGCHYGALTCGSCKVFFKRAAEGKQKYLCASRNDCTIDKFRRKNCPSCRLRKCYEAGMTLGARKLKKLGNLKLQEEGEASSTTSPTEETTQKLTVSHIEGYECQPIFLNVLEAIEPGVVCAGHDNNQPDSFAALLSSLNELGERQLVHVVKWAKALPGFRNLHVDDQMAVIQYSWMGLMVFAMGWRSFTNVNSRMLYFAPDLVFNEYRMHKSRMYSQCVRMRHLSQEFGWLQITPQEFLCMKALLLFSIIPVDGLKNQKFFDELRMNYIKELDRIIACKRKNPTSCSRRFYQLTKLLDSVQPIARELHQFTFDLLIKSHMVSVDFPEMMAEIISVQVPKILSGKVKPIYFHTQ

[2] = target: T1, hAR; assay: co-transfection assay, AR antagonist (in presence of DHT), CV-1 cells; type: cell-based; details: for AR Antagonist CV-1 Cells Efficacy (%): maximal inhibition
[3] = AR Agonist CV-1 Cells Potency (nM), hAR in CV-1 cells

## CC[C@@H]1Oc2cc3[nH]c(=O)cc(C(F)(F)F)c3cc2N(CC(F)(F)F)[C@H]1C (racemic) [Compound 128, (±)-trans-3-Ethyl-1,2,3,6-tetrahydro-2-methyl-1-(2,2,2-trifluoroethyl)-9-(trifluoromethyl)-7H-[1,4]oxazino[3,2-g]quinolin-7-one]
[1]
  EC50: > 10000 nM
[1]; hAR in CV-1 cells
  AR Agonist CV-1 Cells Efficacy (%): na (na = not active (i.e. efficacy of < 20 and potency of > 10,000 nM for the cotransfection assay, and Ki > 1000 nM for the binding assay))
[2]
  IC50: 1.34 µM
[2]; hAR in CV-1 cells, DHT at EC50
  AR Antagonist CV-1 Cells Efficacy (%): 42%

## CC[C@H]1Oc2cc3[nH]c(=O)cc(C(F)(F)F)c3cc2N(CC(F)(F)F)[C@H]1C (racemic) [Compound 129, (±)-cis-3-Ethyl-1,2,3,6-tetrahydro-2-methyl-1-(2,2,2-trifluoroethyl)-9-(trifluoromethyl)-7H-[1,4]oxazino[3,2-g]quinolin-7-one]
[1]
  EC50: 1340 nM
[1]; hAR in CV-1 cells
  AR Agonist CV-1 Cells Efficacy (%): 42%
[2]
  IC50: 0.013 µM
[2]; hAR in CV-1 cells, DHT at EC50
  AR Antagonist CV-1 Cells Efficacy (%): 76%

## O=c1cc(C(F)(F)F)c2cc3c(cc2[nH]1)OCC(CO)N3CC(F)(F)F (racemic) [Compound 130, (±)-1,2,3,6-Tetrahydro-2-(hydroxymethyl)-1-(2,2,2-trifluoroethyl)-9-(trifluoromethyl)-7H-[1,4]oxazino[3,2-g]quinolin-7-one]
[1]; hAR in CV-1 cells
  AR Agonist CV-1 Cells Efficacy (%): 48%
[2]; hAR in CV-1 cells, DHT at EC50
  AR Antagonist CV-1 Cells Efficacy (%): na (na = not active (i.e. efficacy of < 20 and potency of > 10,000 nM for the cotransfection assay, and Ki > 1000 nM for the binding assay))

## CC(=O)OCC1COc2cc3[nH]c(=O)cc(C(F)(F)F)c3cc2N1CC(F)(F)F (racemic) [Compound 131, (±)-1,2,3,6-Tetrahydro-2-(acetoxymethyl)-1-(2,2,2-trifluoroethyl)-9-(trifluoromethyl)-7H-[1,4]oxazino[3,2-g]quinolin-7-one]
[1]
  EC50: 31 nM
[1]; hAR in CV-1 cells
  AR Agonist CV-1 Cells Efficacy (%): 46%
[2]
  IC50: > 10 µM
[2]; hAR in CV-1 cells, DHT at EC50
  AR Antagonist CV-1 Cells Efficacy (%): na (na = not active (i.e. efficacy of < 20 and potency of > 10,000 nM for the cotransfection assay, and Ki > 1000 nM for the binding assay))

## COCC1COc2cc3[nH]c(=O)cc(C(F)(F)F)c3cc2N1CC(F)(F)F (racemic) [Compound 132, (±)-1,2,3,6-Tetrahydro-2-(methoxymethyl)-1-(2,2,2-trifluoroethyl)-9-(trifluoromethyl)-7H-[1,4]oxazino[3,2-g]quinolin-7-one]
[1]; AR Agonist CV-1 Cells Potency (nM)
  EC50: 1.7 nM
[1]; hAR in CV-1 cells
  AR Agonist CV-1 Cells Efficacy (%): 72%
[2]
  IC50: > 10 µM
[2]; hAR in CV-1 cells, DHT at EC50
  AR Antagonist CV-1 Cells Efficacy (%): na (na = not active (i.e. efficacy of < 20 and potency of > 10,000 nM for the cotransfection assay, and Ki > 1000 nM for the binding assay))

## CCC1COc2cc3[nH]c(=O)cc(C(F)(F)F)c3cc2N1CC(F)(F)F (racemic) [Compound 145, (±)-2-Ethyl-1,2,3,6-tetrahydro-1-(2,2,2-trifluoroethyl)-9-(trifluoromethyl)-7H-[1,4]oxazino[3,2-g]quinolin-7-one]
[1]; hAR in CV-1 cells
  AR Agonist CV-1 Cells Efficacy (%): 69%
[2]; hAR in CV-1 cells, DHT at EC50
  AR Antagonist CV-1 Cells Efficacy (%): 30%

## CC1COc2cc3[nH]c(=O)cc(C(F)(F)F)c3cc2N1CC(F)(F)F (single isomer, unassigned; (+)) [Compound 124, (+)-1,2,3,6-Tetrahydro-2-methyl-1-(2,2,2-trifluoroethyl)-9-(trifluoromethyl)-7H-[1,4]oxazino[3,2-g]quinolin-7-one]
[1]; [3]
  EC50: 3.6 nM
[1]; hAR in CV-1 cells
  AR Agonist CV-1 Cells Efficacy (%): 54%
[2]
  IC50: > 10 µM
[2]; hAR in CV-1 cells, DHT at EC50
  AR Antagonist CV-1 Cells Efficacy (%): na (na = not active (i.e. efficacy of < 20 and potency of > 10,000 nM for the cotransfection assay, and Ki > 1000 nM for the binding assay))

## CC1COc2cc3[nH]c(=O)cc(C(F)(F)F)c3cc2N1CC(F)(F)F (single isomer, unassigned; (-)) [Compound 125, (−)-1,2,3,6-Tetrahydro-2-methyl-1-(2,2,2-trifluoroethyl)-9-(trifluoromethyl)-7H-[1,4]oxazino[3,2-g]quinolin-7-one]
[1]; [3]
  EC50: 0.7 nM
[1]; hAR in CV-1 cells
  AR Agonist CV-1 Cells Efficacy (%): 74%
[2]; hAR in CV-1 cells, DHT at EC50
  AR Antagonist CV-1 Cells Efficacy (%): na (na = not active (i.e. efficacy of < 20 and potency of > 10,000 nM for the cotransfection assay, and Ki > 1000 nM for the binding assay))
[2]; read-out: AR Antagonist CV-1 Cells Potency, hAR in CV-1 cells, DHT at EC50
  IC50: > 10 µM

## O=c1[nH]c2cc3c(cc2c(C(F)(F)F)c1F)N(CC(F)(F)F)CCO3 [Compound 106, 8-Fluoro-1,2,3,6-tetrahydro-1-(2,2,2-trifluoroethyl)-9-(trifluoromethyl)-7H-[1,4]oxazino[3,2-g]quinolin-7-one]
[1]
  EC50: 4 nM
[1]; hAR in CV-1 cells
  AR Agonist CV-1 Cells Efficacy (%): 80%
[2]
  IC50: > 10 µM
[2]; hAR in CV-1 cells, DHT at EC50
  AR Antagonist CV-1 Cells Efficacy (%): na (na = not active (i.e. efficacy of < 20 and potency of > 10,000 nM for the cotransfection assay, and Ki > 1000 nM for the binding assay))

## O=c1[nH]c2cc3c(cc2c(C(F)(F)F)c1Cl)N(CC(F)(F)F)CCO3 [Compound 107, 8-Chloro-1,2,3,6-tetrahydro-1-(2,2,2-trifluoroethyl)-9-(trifluoromethyl)-7H-[1,4]oxazino[3,2-g]quinolin-7-one]
[1]
  EC50: 26 nM
[1]; hAR in CV-1 cells
  AR Agonist CV-1 Cells Efficacy (%): 92%
[2]
  IC50: > 10 µM
[2]; hAR in CV-1 cells, DHT at EC50
  AR Antagonist CV-1 Cells Efficacy (%): na (na = not active (i.e. efficacy of < 20 and potency of > 10,000 nM for the cotransfection assay, and Ki > 1000 nM for the binding assay))

## O=c1cc(C(F)F)c2cc3c(cc2[nH]1)OCCN3CC(F)(F)F [Compound 108, 9-(Difluoromethyl)-1,2,3,6-tetrahydro-1-(2,2,2-trifluoroethyl)-7H-[1,4]oxazino[3,2-g]quinolin-7-one]
[1]
  EC50: 14 nM
[1]; hAR in CV-1 cells
  AR Agonist CV-1 Cells Efficacy (%): 80%
[2]
  IC50: > 10 µM
[2]; hAR in CV-1 cells, DHT at EC50
  AR Antagonist CV-1 Cells Efficacy (%): na (na = not active (i.e. efficacy of < 20 and potency of > 10,000 nM for the cotransfection assay, and Ki > 1000 nM for the binding assay))

## Cn1c(=O)cc(C(F)(F)F)c2cc3c(cc21)OCCN3CC(F)(F)F [Compound 109, 1,2,3,6-Tetrahydro-6-methyl-1-(2,2,2-trifluoroethyl)-9-(trifluoromethyl)-7H-[1,4]oxazino[3,2-g]quinolin-7-one]
[1]
  EC50: > 10000 nM
[1]; hAR in CV-1 cells
  AR Agonist CV-1 Cells Efficacy (%): na (na = not active (i.e. efficacy of < 20 and potency of > 10,000 nM for the cotransfection assay, and Ki > 1000 nM for the binding assay))
[2]
  IC50: 0.024 µM
[2]; hAR in CV-1 cells, DHT at EC50
  AR Antagonist CV-1 Cells Efficacy (%): 57%

## FC(F)(F)CN1CCOc2cc3[nH]c(=S)cc(C(F)(F)F)c3cc21 [Compound 110, 1,2,3,6-Tetrahydro-1-(2,2,2-trifluoroethyl)-9-(trifluoromethyl)-7H-[1,4]oxazino[3,2-g]quinolin-7-thione]
[1]
  EC50: 44 nM
[1]; hAR in CV-1 cells
  AR Agonist CV-1 Cells Efficacy (%): 90%
[2]
  IC50: > 10 µM
[2]; hAR in CV-1 cells, DHT at EC50
  AR Antagonist CV-1 Cells Efficacy (%): na (na = not active (i.e. efficacy of < 20 and potency of > 10,000 nM for the cotransfection assay, and Ki > 1000 nM for the binding assay))

## CC(C)CN1CCOc2cc3c(cc21)c(C(F)(F)F)cc(=O)n3C [Compound 113, 1,2,3,6-Tetrahydro-1-isobutyl-6-methyl-9-(trifluoromethyl)-7H-[1,4]oxazino[3,2-g]quinolin-7-one]
[1]
  EC50: > 10000 nM
[1]; hAR in CV-1 cells
  AR Agonist CV-1 Cells Efficacy (%): na (na = not active (i.e. efficacy of < 20 and potency of > 10,000 nM for the cotransfection assay, and Ki > 1000 nM for the binding assay))
[2]
  IC50: 0.061 µM
[2]; hAR in CV-1 cells, DHT at EC50
  AR Antagonist CV-1 Cells Efficacy (%): 78%

## O=c1cc(C(F)(F)F)c2cc3c(cc2[nH]1)OCCN3 [Compound 120, 1,2,3,6-Tetrahydro-9-(trifluoromethyl)-7H-[1,4]oxazino[3,2-g]quinolin-7-one]
[1]; hAR in CV-1 cells
  AR Agonist CV-1 Cells Efficacy (%): na (na = not active (i.e. efficacy of < 20 and potency of > 10,000 nM for the cotransfection assay, and Ki > 1000 nM for the binding assay))
[2]; hAR in CV-1 cells, DHT at EC50
  AR Antagonist CV-1 Cells Efficacy (%): 69%

## O=c1cc(C(F)(F)F)c2cc3c(cc2[nH]1)OCCN3Cc1ccccn1 [Compound 122, 1,2,3,6-Tetrahydro-1-(2-pyridylmethyl)-9-(trifluoromethyl)-7H-[1,4]oxazino[3,2-g]quinolin-7-one]
[1]
  EC50: > 10000 nM
[1]; hAR in CV-1 cells
  AR Agonist CV-1 Cells Efficacy (%): na (na = not active (i.e. efficacy of < 20 and potency of > 10,000 nM for the cotransfection assay, and Ki > 1000 nM for the binding assay))
[2]
  IC50: 0.632 µM
[2]; hAR in CV-1 cells, DHT at EC50
  AR Antagonist CV-1 Cells Efficacy (%): 75%
